Tests used:
[1] = Cytotoxicity assay (Alamar blue), COS-7; type: cell-based, Monkey; details: chlorocebus aethiops, COS-7 cells; COS7, 24 h; read-out: In vitro cytotoxicity CC50 ± SD COS7
Experimental: (§1) Cell toxicity was determined using Alamar blue, as previously described (McMillian et al., 2002). COS-7 cells were seeded as 7000 cells per well in black wall clear bottom 96-well plates in DMEM medium (Life Technologies Australia) with 10% FBS. HepG2 and HEK293 cell lines, from ATCC, were seeded as 5000 cells per well in black wall clear bottom 384-well cell culture plates in DMEM with 1% FBS. Cells were cultured for 24 h at 37° C., 5% CO2. A serial dilution of compounds was added, with a final DMSO concentration adjusted to 0.5% v/v. Cells were incubated for another 24 h. 1 Triton X-100 was used as negative control, and 0.5% DMSO as positive control. 5 μM Alamar blue was added to each well and fluorescence was measured (λexc=560 nm, λem=590 nm) after 2 h incubation at 37° C. Data were analysed using Prism software.

mouse SOX18-HMG (109aa) = mouse SOX18-HMG (109aa) (Mus musculus (Mouse), UniProt P43680); assay: Direct protein binding assay (thermal aggregation, static light scattering); details: 500 μM for Sm4 and Sm14, 1.5 mM for Sm5
COS-7 cells = assay: Cytotoxicity assay (Alamar blue), COS-7; type: cell-based, Monkey; details: COS7, 24 h; read-out: In vitro cytotoxicity CC50 ± SD COS7
Experimental: as §1

ovine COX1 = ovine COX1 (Ovis aries (Sheep), UniProt P05979); assay: COX1 enzymatic assay; type: biochemical; details: up to a concentration of 200 μM
Experimental: (§2) COX inhibition activity was measured using COX1 and COX2 inhibitor screening assay kits from Cayman Chemical Company (Ref #701090 and 701080). All compounds were tested in quadruplicate at a single 200 μM concentration in 2% v/v final DMSO. Compounds were preincubated with ovine COX1 or human COX2 at 37° C. for 10 min before incubation with COX substrate arachidonic acid for another 3 min. Reactions were stopped by addition of concentrated hydrochloric acid. Prostanoid standard curve was prepared and enzyme immunoassay performed as per manufacturer's description. […] Prostanoid standards values were plotted as logit (B/B0) versus log concentrations and fitted with linear regression using GraphPad Prism version 6.0. Standard curve linear fit was used to calculate each samples concentrations.

scrambled DNA = assay: Direct DNA-binding assay (SPR), scrambled DNA; details: biotinylated double-strand DNA on streptavidin chip
Experimental: (§3) Compounds were tested at a 1% v/v DMSO in HBS-EP buffer (10 mM HEPES, 150 mM NaCl, 3 mM EDTA, 0.005% v/v polysorbate 20, pH 7.4). The same buffer supplemented with 1% v/v DMSO was used as a mobile phase. DNA minor groove binder DAPI (4′,6-diamidino-2-phenylindole), DNA intercalator and minor groove binder actinomycin D, and DNA intercalator ethidium bromide were used as positive controls. Biotinylated (one tag per probe) double strand DNA probes were prepared using a standard annealing routine (5 min at 100° C., room temperature overnight and stored at −20° C.) of single strand anti-parallel DNA Probes purchased from Geneworks and were immobilized on CM5-SA streptavidin chips as per manufacturer's recommendations. […] All sample and control cycles were performed in triplicate. DMSO calibration was performed as per manufacturer's recommendations. After each injection, an extra flow system wash was performed with 50% v/v DMSO to avoid carryover. Experiments were run on a Biacore T200 (GE Healthcare, USA), with one flow cell kept as a reference.
(§4) From a molecular viewpoint, an inhibitor of SOX18-DNA binding could act either by interacting directly with the DNA, or the protein, or at the interface between protein and DNA. Binding of small molecules directly to the DNA, even though reported for other TFs (Leung et al., 2013), has the potential for unspecific DNA binding, leading to possible genotoxicity, mutagenicity, or carcinogenicity. For this reason, we developed a direct binding assays to determine whether the active compounds interact directly with DNA or protein. A surface plasmon resonance-based method was developed to analyse the binding of small molecules to biotinylated double stranded DNA immobilized on the surface of a streptavidin chip. The method measures the rate of binding (kon), dissociation (koff) and binding constant (KD), and was used to measure the binding to two different DNA sequences: SOX binding site consensus DNA, and scrambled DNA. Intercalating agents ethidium bromide and Actinomycin D, and the minor groove-binding agent 4′,6-diamino-2-phenylindole (DAPI) were used as positive controls for unselective DNA binding.

human COX2 = human COX2 (Homo sapiens (Human), UniProt P35354); assay: COX2 enzymatic assay; type: biochemical; details: up to a concentration of 200 μM
Experimental: as §2

[2] = test system: SOX binding site consensus DNA; assay: Direct DNA-binding assay (SPR), consensus DNA; details: biotinylated double-strand DNA on streptavidin chip
Experimental: as §3, §4

HEK293 = assay: Cytotoxicity assay (Alamar blue), HEK293; type: cell-based; details: HEK293, 24 h
Method in brief: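 COS-7 cells in DMEM with 10% FBS; HepG2 and HEK293 in DMEM with 1% FBS. After 24 h plating, serial compound dilutions (0.5% DMSO final) added for 24 h at 37° C. Viability from Alamar blue 5 μM, fluorescence 560/590 nm read after 2 h.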

HepG2 = assay: Cytotoxicity assay (Alamar blue), HepG2; type: cell-based; details: HepG2, 24 h

Chain of mouse SOX18-HMG (109aa) (P43680 69-177): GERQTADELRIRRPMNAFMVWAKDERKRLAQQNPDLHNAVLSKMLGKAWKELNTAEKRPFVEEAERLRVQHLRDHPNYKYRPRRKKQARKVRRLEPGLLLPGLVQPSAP
Chain of ovine COX1 (P05979 25-600): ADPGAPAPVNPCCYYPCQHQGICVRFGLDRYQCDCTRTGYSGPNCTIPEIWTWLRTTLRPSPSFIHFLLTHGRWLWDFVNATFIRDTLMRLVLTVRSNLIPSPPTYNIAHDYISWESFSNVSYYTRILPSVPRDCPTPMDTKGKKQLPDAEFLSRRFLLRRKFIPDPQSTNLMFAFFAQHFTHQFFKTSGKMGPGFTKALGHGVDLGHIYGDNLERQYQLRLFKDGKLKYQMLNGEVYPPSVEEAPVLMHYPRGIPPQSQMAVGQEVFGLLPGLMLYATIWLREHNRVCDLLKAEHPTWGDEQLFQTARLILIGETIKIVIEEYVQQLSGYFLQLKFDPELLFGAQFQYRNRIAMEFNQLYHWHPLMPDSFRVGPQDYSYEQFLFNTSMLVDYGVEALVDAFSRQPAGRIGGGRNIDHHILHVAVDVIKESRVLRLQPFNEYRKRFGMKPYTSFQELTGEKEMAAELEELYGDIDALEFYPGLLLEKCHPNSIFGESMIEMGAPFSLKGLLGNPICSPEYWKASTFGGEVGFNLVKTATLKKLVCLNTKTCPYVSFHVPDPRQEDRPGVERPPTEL
Chain of human COX2 (P35354 18-604): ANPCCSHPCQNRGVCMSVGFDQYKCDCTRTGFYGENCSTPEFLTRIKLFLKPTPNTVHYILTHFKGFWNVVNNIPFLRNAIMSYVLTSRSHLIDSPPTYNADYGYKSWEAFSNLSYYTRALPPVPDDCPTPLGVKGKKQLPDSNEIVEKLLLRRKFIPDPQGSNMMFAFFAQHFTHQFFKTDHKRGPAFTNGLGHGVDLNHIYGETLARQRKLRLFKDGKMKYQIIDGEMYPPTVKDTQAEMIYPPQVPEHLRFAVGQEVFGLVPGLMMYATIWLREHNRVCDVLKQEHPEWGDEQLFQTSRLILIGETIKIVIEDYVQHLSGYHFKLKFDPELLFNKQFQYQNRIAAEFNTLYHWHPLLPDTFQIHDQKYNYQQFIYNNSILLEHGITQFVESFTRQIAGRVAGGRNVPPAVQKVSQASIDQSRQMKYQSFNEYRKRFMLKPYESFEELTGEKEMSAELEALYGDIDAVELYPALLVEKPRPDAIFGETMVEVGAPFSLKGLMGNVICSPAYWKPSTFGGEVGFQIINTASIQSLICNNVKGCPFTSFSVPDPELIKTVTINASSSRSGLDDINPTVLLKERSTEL

Compound: O=C(O)c1ccccc1Nc1cccc(C(F)(F)F)c1 [Flufenamic acid, reference compound]
- CC50 at 24 h [1]: 65 ± 2.7 µM

Compound: O=C(O)c1c(O)cccc1COCCc1ccccc1 [Sm5]
- increase in Tagg (mouse SOX18-HMG (109aa)): more than 3 °C
- CC50 (COS-7 cells): > 200 µM
- COX-1 inhibitory activity (ovine COX1): None of the SOX18 inhibitor display any COX-1 or COX-2 inhibitory activity
- binding to scrambled DNA (SPR) (scrambled DNA): do not bind
- COX-2 inhibitory activity (human COX2): None of the SOX18 inhibitor display any COX-1 or COX-2 inhibitory activity
- binding to consensus DNA (SPR) [2]: do not bind

Compound: CCN(CC)C(=O)c1c(O)cc(O)cc1CCc1ccc2ccccc2c1 [Sm26, N,N,diethyl-2,4-hydroxy-6-(2-(naphthalen-2-yl)ethyl)benzamide]
- CC50 (HEK293): 23.5 µM
- CC50 (HepG2): 16.8 µM

From US20240002326A1, “COMPOUNDS AND USE THEREOF IN METHODS OF TREATMENT” (The University of Queensland, priority 2016, published 2024)
